Laboratory results as given in ChEMBL document CHEMBL3351644, “Tryptophanol-derived oxazolopiperidone lactams: identification of a hit compound as NMDA receptor antagonist” (Bioorg Med Chem Lett, 2014).

What was measured:
[1] = target: Glutamate NMDA receptor; experiment: Antagonist activity at NMDA receptor in Wistar rat cerebellar granule neurons assessed as inhibition of NMDA-induced intracellular calcium by Fura-2 fluorescence assay; type: cell-based
[2] = target: Glutamate NMDA receptor (Rattus norvegicus) (UniProt P35439+Q00959+Q00960+Q00961+Q62645+Q8VHN2+Q9R1M7); experiment: Ratio of amantadine IC50 to compound IC50 for NMDA receptor in Wistar rat cerebellar granule neurons assessed as inhibition of NMDA-induced intracellular calcium by Fura-2 fluorescence assay; type: cell-based

Row | SMILES | IC50 [1] | Ratio IC50 [2]
1 | CC[C@@H]1CCC(=O)N2[C@@H](Cc3c[nH]c4ccccc34)CO[C@@H]12 | > 450 µM | –
2 | CC[C@H]1CCC(=O)N2[C@H](Cc3c[nH]c4ccccc34)CO[C@H]12 | > 450 µM | –
3 | COC(=O)C[C@@H]1CC(=O)N2[C@@H](Cc3c[nH]c4ccccc34)CO[C@@H]2C1 | > 450 µM | –
4 | COC(=O)C[C@H]1CC(=O)N2[C@@H](Cc3c[nH]c4ccccc34)CO[C@@H]2C1 | > 450 µM | –
5 | COC(=O)C[C@H]1CC(=O)N2[C@H](Cc3c[nH]c4ccccc34)CO[C@H]2C1 | > 450 µM | –
6 | COC(=O)C[C@@H]1CC(=O)N2[C@H](Cc3c[nH]c4ccccc34)CO[C@@H]2C1 | > 450 µM | –
7 | Cc1ccc(S(=O)(=O)n2cc(C[C@@H]3CO[C@H]4CCCC(=O)N34)c3ccccc32)cc1 | > 450 µM | –

More lines, now with the values ahead:

Row | IC50 [1] | Ratio IC50 [2] | SMILES
8 | 429 µM | – | O=C1CCC[C@H]2OC[C@H](Cc3c[nH]c4ccccc34)N12
9 | > 450 µM | – | O=C1CCC[C@H]2OC[C@@H](Cc3c[nH]c4ccccc34)N12
10 | > 450 µM | – | Cn1cc(C[C@@H]2CO[C@H]3CCCC(=O)N23)c2ccccc21
11 | > 450 µM | – | CC[C@H]1CCC(=O)N2[C@@H](Cc3c[nH]c4ccccc34)CO[C@H]12
12 | > 450 µM | – | CC[C@@H]1CCC(=O)N2[C@H](Cc3c[nH]c4ccccc34)CO[C@@H]12
13 | 305 µM | – | O=C1CCC[C@@H]2OC[C@H](Cc3c[nH]c4ccccc34)N12
14 | 63.4 µM | 1.5 | O=C1CCC[C@@H]2OC[C@@H](Cc3c[nH]c4ccccc34)N12
15 | 341 µM | – | O=C1CC[C@@H]2OC[C@@H](Cc3c[nH]c4ccccc34)N12
